Laboratory results: patent publication US6632794B1, “Insulin-like growth factor agonist molecules” (Genentech, Inc., priority 1997, dated 2003)

Columns and labels:
dwarf rats = test: Long-term administration to GH-deficient dwarf (dw/dw) rats; format: in vivo, rat; conditions: 150 μg of IGF-I agonist as printed
L7 murine fibroblasts = conditions: Bayne et al.; cited from earlier work
[1] = tested on: endogenous IGFBPs present in human serum; test: Displacement of ^125I-IGF-I from IGFBPs in human serum (FPLC-SEC); format: binding; conditions: normal human serum, IGF mutant 40 μg/ml, mean ± SD, n = 3
Procedure: To determine if the IGF mutant could displace IGF-I from endogenous IGFBPs present in human serum, the following experiment was performed. Radiolabeled rhIGF-I (^125-IGF-I) was incubated with normal human serum samples at a concentration of 33 ng/ml for 16 hr at 4° C. to allow for the formation of […] complexes. […] The samples (n=3) were then analyzed by FPLC size-exclusion chromatography (FPLC-SEC) to determine the relative size and amounts of the ^125I-IGF-I:IGFBP complexes.
Data are expressed as cpm per fraction (n=1).
This Example tests an IGFBP-3-specific peptide, BP15, for its ability to block the binding of ^125I-IGF-I in human serum. Human serum was incubated with ^125I-IGF-I±the peptide and the amount of tracer bound to IGFBPs via size-exclusion chromatography was measured.

## (Leu^24,Ala^31)hIGF-I
Dwarf rats
  total IGF-I (rat and human) in blood: rise in total IGF-I
L7 murine fibroblasts
  reduction in activity, ^3H thymidine incorporation: more than 200 fold
[1]; 0 hr
  Free (˜7 kDa) ^125I-IGF-I, percent of total radioactivity: 9.3 ± 2.3%
  ^125I-IGF-I in ˜44 kDa range, percent of total radioactivity: 60.5 ± 0.8%
  ^125I-IGF-I in ˜150 kDa range, percent of total radioactivity: 30.3 ± 1.4%
[1]; 0.5 hr
  Free (˜7 kDa) ^125I-IGF-I, percent of total radioactivity: 38.2 ± 3.7%
  ^125I-IGF-I in ˜44 kDa range, percent of total radioactivity: 37.3 ± 2.9%
  ^125I-IGF-I in ˜150 kDa range, percent of total radioactivity: 24.4 ± 0.8%
[1]; 3 hr
  Free (˜7 kDa) ^125I-IGF-I, percent of total radioactivity: 61.9 ± 2.6%
  ^125I-IGF-I in ˜44 kDa range, percent of total radioactivity: 27.8 ± 1.5%
  ^125I-IGF-I in ˜150 kDa range, percent of total radioactivity: 10.3 ± 1.1%
[1]; 24 hr
  Free (˜7 kDa) ^125I-IGF-I, percent of total radioactivity: 81.9 ± 0.5%
  ^125I-IGF-I in ˜44 kDa range, percent of total radioactivity: 12.6 ± 0.4%
  ^125I-IGF-I in ˜150 kDa range, percent of total radioactivity: 5.5 ± 0.1%
